Structures can show the parent of a compound that is named as a salt.

One experiment deals with Phytophthora infestans. Description: whole plant or invertebrate. Type of experiment: in vivo. The note with it: in Solanum tuberosum, 120 h, read-out: P. infestans % inhibition.
Experiment [1] relates to Pseudomonas syringae pv. tomato (Pto) DC3000. Briefly: Bacterial liquid culture growth curves (OD600), Pto DC3000. Conditions: 18.5 h, read-out: Absolute growth rate relative to mock control, Pto DC3000.
Another experiment concerns Rhodococcus sp. Briefly: Bacterial liquid culture growth curves (OD600), Rhodococcus sp. Conditions: 18.5 h, read-out: Absolute growth rate relative to mock control, Rhodococcus sp.
A further experiment deals with P. infestans. Description: whole plant or invertebrate. Type of experiment: in vivo. The note with it: Phytophthora infestans, in Solanum tuberosum, read-out: P. infestans % inhibition.

For the compound `Ic1ccc(-c2cc(-c3ccc4c(c3)OCO4)n[nH]2)cc1` [Compound 15, 3-(1,3-Benzodioxol-5-yl)-5-(4-iodophenyl)-1H-pyrazole], the inhibition at 100 µM with Phytophthora infestans was 56%.

Regarding `c1ccc(-c2cc(-c3ccc4c(c3)OCO4)no2)cc1` [Compound 17, 3-(1,3-Benzodioxol-5-yl)-5-phenylisoxazole], the inhibition at 100 µM in the experiment on Phytophthora infestans was 13%. Still for that read-out and setting: with `COc1ccc(-c2cc(-c3cccc(F)c3)on2)cc1OC` [Compound 20, 3-(3,4-Dimethoxyphenyl)-5-(3-fluorophenyl)isoxazole] the figure was 21%. As for `COc1ccc(-c2cc(-c3ccc(Cl)cc3)n[nH]2)cc1` [Compound 31, 3-(4-Chlorophenyl)-5-(4-methoxyphenyl)-1H-pyrazole], in the experiment with Phytophthora infestans, the inhibition at 100 µM was determined as 77%. For `CNc1ccc(-c2cc(-c3cccc(Br)c3)[nH]n2)cc1` [Compound 42, 5-(3-Bromophenyl)-3-[4-(methylamino)phenyl]-1H-pyrazole], the activity at 100 µM stood at 73% in experiment [1] and 72% in the experiment with Rhodococcus sp..

`Fc1cc(F)cc(-c2cc(-c3ccc4c(c3)OCO4)n[nH]2)c1` [Compound 104, 3-(1,3-Benzodioxol-5-yl)-5-(3,5-difluorophenyl)-1H-pyrazole]: the results for the activity at 100 µM (in experiment [1]; in the experiment with Rhodococcus sp.) were 101% and 51%, respectively.

In the case of `N[C@@H](CC(=O)O)C(=O)Nc1ccc(-c2nc(-c3cccc(C(F)(F)F)c3)no2)cc1` [Compound 133, (3S)-3-Amino-4-oxo-4-[(4-{3-[3-(trifluoromethyl)phenyl]-1,2,4-oxadiazol-5-yl}phenyl)amino]butanoic acid hydrochloride], in the experiment with P. infestans, the inhibition at 100 µM amounted to 85%. Still for that read-out and setting: the same measure for `CCOc1ccc(-c2cc(-c3ccc(C)c(C)c3)[nH]n2)cc1` [Compound 134, 3-(3,4-Dimethylphenyl)-5-(4-ethoxyphenyl)-1H-pyrazole]: 19%. In the case of `O=C(O)c1ccc(-c2nc(-c3ccc(N4CCCC4)cc3)c[nH]2)cc1` [Compound 135, 4-{4-[4-(Pyrrolidin-1-yl)phenyl]-1H-imidazol-2-yl}benzoic acid], in the experiment on P. infestans, the inhibition at 100 µM worked out at 51%. Same read-out and setting: the same measure for `O=S(=O)(Nc1cccc(-c2nc(-c3ccc(OC(F)(F)F)cc3)c[nH]2)c1)c1ccc(Cl)cc1` [Compound 136, 4-Chloro-N-(3-{4-[4-(trifluoromethoxy)phenyl]-1H-imidazol-2-yl}phenyl)benzenesulfonamide]: 7%; for `COCCOC(=O)Nc1cccc(-c2nc(-c3ccc(OC(F)(F)F)cc3)c[nH]2)c1` [Compound 137, 2-Methoxyethyl (3-{4-[4-(trifluoromethoxy)phenyl]-1H-imidazol-2-yl}phenyl) carbamate]: 77%; for `CCc1ccc(-c2c[nH]c(-c3cccc(C(=O)N4CCN(C)CC4)c3)n2)cc1` [Compound 138, (4-Methylpiperazin-1-yl){3-[4-(4-ethylphenyl)-1H-imidazol-2-yl]phenyl}methanone]: 68%.

With `COCCOC(=O)Nc1cccc(-c2nc(-c3ccc(OC)cc3)n[nH]2)c1` [Compound 139, 2-Methoxyethyl {3-[3-(4-methoxyphenyl)-1H-1,2,4-triazol-5-yl]phenyl}carbamate], in the experiment with P. infestans, the inhibition at 100 µM worked out at 48%. The same measure, in the same setting: with `COc1ccc(-c2n[nH]c(-c3cccc(NC(=O)[C@H](C)N)c3)n2)cc1` [Compound 140, (2S)-2-Amino-N-{3-[3-(4-methoxyphenyl)-1H-1,2,4-triazol-5-yl]phenyl}propenamide hydrochloride] the figure was 39%; with `N[C@@H](Cc1ccccc1)C(=O)Nc1cccc(-c2nc(-c3ccc(OC(F)(F)F)cc3)c[nH]2)c1` [Compound 141, (2S)-2-Amino-N-{3-[4-(4-trifluoromethoxyphenyl)-1H-imidazol-2-yl]phenyl}-3-phenylpropanamide hydrochloride], 93%; with `O=C(O)c1ccc(-c2cc(-c3ccc(F)cc3)[nH]n2)cc1` [Compound 142, 4-[5-(4-Fluorophenyl)-1H-pyrazol-3-yl]benzoic acid], 46%. As to `COc1ccc(-c2c[nH]c(-c3cccc(N4CCOCC4)c3)n2)cc1OC` [Compound 144, 4-{3-[4-(3,4-Dimethoxyphenyl)-1H-imidazol-2-yl]phenyl}morpholine], the inhibition at 100 µM in the experiment with P. infestans worked out at 81%. The same measure, in the same setting: the same measure for `CC(C)[C@H](N)C(=O)Nc1cccc(-c2cc(-c3cccc(OC(F)(F)F)c3)[nH]n2)c1` [Compound 145, (2S)-2-Amino-N-{3-[5-(3-trifluoromethoxyphenyl)-1H-pyrazol-3-yllphenyl}-3-methylbutanamide hydrochloride]: 97%.

`CN1CCN(c2ccc(-c3cc(-c4cc(F)cc(F)c4)[nH]n3)cc2)CC1` [Compound 146, 1-{4-[5-(3,5-Difluorophenyl)-1H-pyrazol-3-yl]phenyl}-4-methylpiperazine]: in the experiment on P. infestans, the inhibition at 100 µM came to 95%. Still for that read-out and setting: with `CN1CCN(C(=O)c2cccc(-c3cc(-c4ccc(C(F)(F)F)cc4)[nH]n3)c2)CC1` [Compound 147, {3-[5-(4-Trifluoromethylphenyl)-1H-pyrazol-3-yl]phenyl}(4-methylpiperazin-1-yl)methanone] the figure was 81%. The same measure, in the same setting: the same measure for `COCCNC(=O)Nc1cccc(-c2cc(-c3cccc(OC(F)(F)F)c3)[nH]n2)c1` [Compound 148, 1-{3-[5-(3-Trifluoromethoxyphenyl)-1H-pyrazol-3-yl]phenyl}-3-(2-methoxyethyl)urea]: 6%; for `CN1CCN(c2ccc(-c3cc(-c4cc(F)ccc4F)[nH]n3)cc2)CC1` [Compound 149, 1-{4-[5-(2,5-Difluorophenyl)-1H-pyrazol-3-yl]phenyl}-4-methylpiperazine]: 8%.

For `Cc1cccc(-c2nc(-c3cccc(F)c3)c[nH]2)c1` [Compound 150, 4-(3-Fluorophenyl)-2-(3-methylphenyl)-1H-imidazole], the inhibition at 100 µM with P. infestans came out at 91%. As to `Fc1cccc(-c2c[nH]c(-c3cccc(C(F)(F)F)c3)n2)c1` [Compound 151, 4-(3-Fluorophenyl)-2-[3-(trifluoromethyl)phenyl]-1H-imidazole], the inhibition at 100 µM in the experiment with P. infestans amounted to 85%. The same measure, in the same setting: with `CCc1ccc(-c2c[nH]c(-c3ccc(NS(C)(=O)=O)cc3)n2)cc1` [Compound 152] the figure was 91%; with `CCc1ccc(-c2c[nH]c(-c3ccc(NC(=O)[C@@H]4CCCN4)cc3)n2)cc1` [Compound 153, (2S)-N-{4-[4-(4-Ethylphenyl)-1H-imidazol-2-yl]phenyl}pyrrolidine-2-carboxamide dihydrochloride], 95%. Still for that read-out and setting: with `CCc1ccc(-c2c[nH]c(-c3ccc(NC(=O)OCCOC)cc3)n2)cc1` [Compound 154, 2-Methoxyethyl {4-[4-(4-ethylphenyl)-1H-imidazol-2-yl]phenyl}carbamate] the figure was 89%; with `CCc1ccc(-c2c[nH]c(-c3ccc(NC(C)=O)cc3)n2)cc1` [Compound 155, N-{4-[4-(4-Ethylphenyl)-1H-imidazol-2-yl]phenyl}acetamide], 16%; with `Cc1ccc(-c2n[nH]c(-c3cccc(N4CCCC4)c3)n2)cc1C` [Compound 156, 3-(3,4-Dimethylphenyl)-5-[3-(pyrrolidin-1-yl)phenyl]-1H-1,2,4-triazole], 25%.

Regarding `Cc1ccc(-c2n[nH]c(-c3cccc(NC(=O)OC(C)C)c3)n2)cc1` [Compound 157, Propan-2-yl {3-[3-(4-methylphenyl)-1H-1,2,4-triazol-5-yl]phenyl}carbamate], the inhibition at 100 µM with P. infestans amounted to 17%. The same measure, in the same setting: with `COc1ccc(-c2nc(-c3cccc(Cl)c3)n[nH]2)cc1OC` [Compound 158, 3-(3-Chlorophenyl)-5-(3,4-dimethoxyphenyl)-1H-1,2,4-triazole] the figure was 59%; with `Cc1ccc(-c2n[nH]c(-c3cccc(NC(=O)[C@@H](N)CC(C)C)c3)n2)cc1` [Compound 159, (2S)-2-Amino-N-{3-[3-(4-methylphenyl)-1H-1,2,4-triazol-5-yl]phenyl}-4-methylpentanamide], 97%; with `COc1ccc(-c2nc(-c3ccc(C)c(C)c3)n[nH]2)cc1OC` [Compound 160, 5-(3,4-Dimethoxyphenyl)-3-(3,4-dimethylphenyl)-1H-1,2,4-triazole], 76%. Same read-out and setting: the same measure for `FC(F)(F)c1cccc(-c2nc(-c3cccc(Cl)c3)n[nH]2)c1` [Compound 161, 3-(3-Chlorophenyl)-5-[3-(trifluoromethyl)phenyl]-1H-1,2,4-triazole]: 50%. Consider `Cc1ccc(-c2cc(-c3ccc(NC(=O)[C@@H](N)CCC(N)=O)cc3)[nH]n2)cc1` [Compound 162, (2S)-2-Amino-N1-{4-[3-(4-methylphenyl)-1H-pyrazol-5-yl]phenyl}pentanediamide hydrochloride], for which the inhibition at 100 µM with P. infestans was 34%. Still for that read-out and setting: the same measure for `O=C(c1cccc(-c2nc(-c3cccc(F)c3)n[nH]2)c1)N1CCOCC1` [Compound 163, {3-[3-(3-Fluorophenyl)-1H-1,2,4-triazol-5-yl]phenyl}(morpholin-4-yl)methanone]: 22%; for `COc1ccc(-c2n[nH]c(-c3ccc(Br)cc3)n2)cc1` [Compound 164, 5-(4-Bromophenyl)-3-(4-methoxyphenyl)-1H-1,2,4-triazole]: 8%. Still for that read-out and setting: the same measure for `CCOc1cccc(-c2cc(-c3ccc(OC(F)(F)F)cc3)[nH]n2)c1` [Compound 165, 5-(3-Ethoxyphenyl)-3-[4-(trifluoromethoxy)phenyl]-1H-pyrazole]: 2%. The same measure, in the same setting: with `O=C(O)c1cccc(-c2cc(-c3ccc4c(c3)OCO4)[nH]n2)c1` [Compound 166, 3-[5-(1,3-Benzodioxol-5-yl)-1H-pyrazol-3-yl]benzoic acid] the figure was 6%.

A word on the inhibition: it is the share of the control response that was lost under treatment.

The record behind these values is patent publication US20250228242A1 (priority 2021, published 2025).
